From ChEMBL document CHEMBL5500406, “Discovery of Novel Proteolysis-Targeting Chimera Molecules as Degraders of Programmed Cell Death-Ligand 1 for Breast Cancer Therapy” (J Med Chem, 2024)
Calls of active or inactive are those of the source. The calls are words filed in the database; no cut-off is given here.

Biological target: Protein cereblon/Programmed cell death 1 ligand 1 (Mus musculus) (UniProt Q9EP73+Q8C7D2)
Test: PROTAC activity at CRBN/PD-L1 in mouse 4T1 cells assessed as protein degradation at 1.25 to 20 uM incubated for 24 hrs by Western blot analysis
Assay type: cell-based
Conditions: dose 1.25-20 µM

Chain of Protein cereblon/Programmed cell death 1 ligand 1 (Mus musculus) (Q8C7D2 whole entry partner): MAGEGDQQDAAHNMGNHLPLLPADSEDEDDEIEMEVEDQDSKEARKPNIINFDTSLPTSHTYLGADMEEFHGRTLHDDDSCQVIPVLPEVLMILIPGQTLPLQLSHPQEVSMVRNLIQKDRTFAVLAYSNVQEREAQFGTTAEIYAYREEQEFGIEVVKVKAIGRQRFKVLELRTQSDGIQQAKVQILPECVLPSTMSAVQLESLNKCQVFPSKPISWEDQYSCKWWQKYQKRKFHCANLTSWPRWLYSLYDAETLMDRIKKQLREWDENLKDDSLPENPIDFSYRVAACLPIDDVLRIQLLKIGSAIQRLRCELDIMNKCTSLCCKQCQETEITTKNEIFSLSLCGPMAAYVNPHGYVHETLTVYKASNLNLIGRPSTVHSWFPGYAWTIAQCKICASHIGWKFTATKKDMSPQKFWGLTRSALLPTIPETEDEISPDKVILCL
Chain of Protein cereblon/Programmed cell death 1 ligand 1 (Mus musculus) (Q9EP73 19-290 limits assumed): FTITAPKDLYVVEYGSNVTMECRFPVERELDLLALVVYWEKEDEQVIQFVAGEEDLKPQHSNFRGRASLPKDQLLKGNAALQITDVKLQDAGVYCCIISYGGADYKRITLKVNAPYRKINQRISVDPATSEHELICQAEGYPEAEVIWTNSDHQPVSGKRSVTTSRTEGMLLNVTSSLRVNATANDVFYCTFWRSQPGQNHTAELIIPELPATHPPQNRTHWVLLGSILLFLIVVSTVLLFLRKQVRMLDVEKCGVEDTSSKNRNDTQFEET

In the case of `COc1nc(OCc2cccc(-c3ccccc3)c2C)ccc1CNCCNC(=O)CCCCCCCNC(=O)COc1ccc(C2CCC(=O)NC2=O)cc1` (stereo unspecified), the Activity is reported as “Active”.
